From the Kinase Knowledgebase extract (Sharma et al. 2016) come the findings set out here.

For orientation: IC50 means the concentration at which inhibition is half-maximal. Read a high IC50 as lower potency.

Test [1] concerns the target EGFR (human), P00533 [WT].
The target of the next test is EGFR (human) (UniProt P00533). The note with it: hcc827.
Chain of EGFR (human) (P00533 whole entry, looked up): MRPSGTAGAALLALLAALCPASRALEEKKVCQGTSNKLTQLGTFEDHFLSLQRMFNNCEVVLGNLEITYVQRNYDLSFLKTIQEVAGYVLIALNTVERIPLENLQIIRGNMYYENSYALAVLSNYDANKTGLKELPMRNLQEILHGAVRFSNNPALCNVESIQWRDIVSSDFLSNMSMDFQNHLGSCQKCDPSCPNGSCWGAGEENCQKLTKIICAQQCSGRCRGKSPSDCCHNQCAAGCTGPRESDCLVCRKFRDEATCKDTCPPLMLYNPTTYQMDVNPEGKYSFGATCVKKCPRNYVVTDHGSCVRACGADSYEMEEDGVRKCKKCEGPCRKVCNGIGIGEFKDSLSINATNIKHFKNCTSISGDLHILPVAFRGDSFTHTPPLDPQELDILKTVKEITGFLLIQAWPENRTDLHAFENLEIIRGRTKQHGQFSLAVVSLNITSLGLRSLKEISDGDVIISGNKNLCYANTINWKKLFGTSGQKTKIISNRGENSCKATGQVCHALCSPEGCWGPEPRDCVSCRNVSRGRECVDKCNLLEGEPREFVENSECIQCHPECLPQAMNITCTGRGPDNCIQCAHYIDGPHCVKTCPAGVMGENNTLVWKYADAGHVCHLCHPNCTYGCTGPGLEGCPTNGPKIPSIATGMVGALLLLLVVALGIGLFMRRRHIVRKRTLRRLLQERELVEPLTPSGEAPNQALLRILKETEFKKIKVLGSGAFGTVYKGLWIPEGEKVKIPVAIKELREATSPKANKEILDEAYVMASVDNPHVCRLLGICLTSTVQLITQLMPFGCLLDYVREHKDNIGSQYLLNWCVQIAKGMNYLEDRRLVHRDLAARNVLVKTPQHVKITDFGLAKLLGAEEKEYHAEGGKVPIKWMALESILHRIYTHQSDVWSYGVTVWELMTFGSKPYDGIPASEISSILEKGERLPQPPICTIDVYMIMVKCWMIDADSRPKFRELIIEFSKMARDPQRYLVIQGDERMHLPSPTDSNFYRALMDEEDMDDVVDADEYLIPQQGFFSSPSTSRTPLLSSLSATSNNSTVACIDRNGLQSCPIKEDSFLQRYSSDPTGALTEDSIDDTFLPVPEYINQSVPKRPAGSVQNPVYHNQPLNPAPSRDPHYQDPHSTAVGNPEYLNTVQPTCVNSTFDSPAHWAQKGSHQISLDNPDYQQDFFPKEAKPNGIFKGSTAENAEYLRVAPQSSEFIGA

Chain of EGFR (human), P00533 [WT] (P00533 whole entry, looked up): as above

`C/C=C/C(=O)N1CCc2c(sc3ncnc(N[C@H](COCc4cccc(F)c4)c4ccccc4)c23)C1` displayed an IC50 in test [1] of 60 to 100 nM.
On to `CCOC(=O)[C@@H](Nc1ncnc2oc(-c3ccccc3)c(-c3ccccc3)c12)c1ccccc1`, for which the IC50 on EGFR (human) fell in the range of 301 to 999 nM.
Consider `C=CC(=O)Nc1ccc(-c2nc3c(N[C@H](CO)c4ccccc4)ncnc3o2)cc1`, for which the concentration for half-maximal inhibition (IC50) in test [1] is 101 to 900 nM.
Regarding `CC(=O)OC/C=C/C(=O)N1CCc2c(sc3ncnc(N[C@H](C)c4ccccc4)c23)C1`, the half-maximal inhibitory concentration (IC50) in test [1] was below 59 nM; on EGFR (human), 1 to 99 nM.
With `CCN(CC)C/C=C/C(=O)N1CCc2c(sc3ncnc(N[C@H](CCO)c4ccccc4)c23)C1`, in test [1], the IC50 is below 59 nM.
For `OC[C@@H](Nc1ncnc2sc3c(c12)CCC3)c1ccccc1`, the IC50 against EGFR (human) lay in the range of 301 to 999 nM.
On to `O=C(O)[C@@H](Nc1ncnc2oc(-c3ccccc3)c(-c3ccccc3)c12)c1ccccc1`, for which the half-inhibitory concentration (IC50) in test [1] was below 59 nM.
The same measure, in the same setting: the figure for `OC[C@@H](Nc1ncnc2sc(-c3ccccc3)c(Cl)c12)c1ccccc1` is 101 to 900 nM; for `OC[C@@H](Nc1ncnc2oc(-c3ccccc3)c(Cl)c12)c1ccccc1` it is 101 to 900 nM.
Turning to `CCN(C/C=C/C(=O)N1CCc2c(sc3ncnc(N[C@H](C)c4ccccc4)c23)C1)CCO`, the IC50 in test [1] is below 59 nM; on EGFR (human), 1 to 99 nM.
Turning to `CC(=O)Nc1cccc(-c2c(-c3ccccc3)oc3ncnc(N[C@H](CO)c4ccccc4)c23)c1`, the IC50 lay in the range of 101 to 900 nM in test [1] and 100 to 300 nM against EGFR (human).
With `CC(C)NC/C=C/C(=O)N1CCc2c(sc3ncnc(N[C@H](C)c4ccccc4)c23)C1`, the IC50 in test [1] lay within 101 to 900 nM; on EGFR (human), 1 to 99 nM.
In turn, `O=C(O)[C@@H](Nc1ncnc2oc(-c3ccccc3)c(Br)c12)c1ccccc1` displayed an IC50 in test [1] below 59 nM.
In test [1], `COc1ccc(-c2oc3ncnc(N[C@H](CO)c4ccccc4)c3c2-c2ccc(OC)cc2)cc1` came in with an IC50 of 60 to 100 nM.
Consider `CC[C@@H](Nc1ncnc2sc3c(c12)CCCC3)c1ccccc1`, for which the IC50 in test [1] was 101 to 900 nM; at EGFR (human), 301 to 999 nM.
In the same order, the values of `C[C@@H](Nc1ncnc2sc3c(c12)CCN(C(=O)/C=C/CNN1CCCCC1)C3)c1ccccc1` are below 59 nM and 1 to 99 nM.
Molecule `COC(=O)[C@@H](Nc1ncnc2oc(-c3ccccc3)c(-c3ccccc3)c12)c1ccccc1` showed a concentration for half-maximal inhibition (IC50) against EGFR (human) of 301 to 999 nM.
Turning to `CC(=O)OC[C@@H](Nc1ncnc2sc3c(c12)CCN(C(=O)/C=C/CN(C)C)C3)c1ccccc1`, in test [1], the IC50 is below 59 nM.
On to `C=C(CN(C)C)C(=O)N1CCc2c(sc3ncnc(N[C@H](CO)c4ccccc4)c23)C1`, for which the figures for the IC50 (in test [1]; against EGFR (human)) were 101 to 900 nM and 1 to 99 nM, respectively.
In the same order, the values of `C=CC(=O)Nc1ccc(-c2c(-c3ccccc3)oc3ncnc(N[C@H](C)c4ccccc4)c23)cc1` are 101 to 900 nM and 1 to 99 nM.
For `CCC[C@@H](Nc1ncnc2sc3c(c12)CCN(C(=O)/C=C/CN(C)C)C3)c1ccccc1`, in that order: below 59 nM and 1 to 99 nM.
For `O=C(O)[C@@H](Nc1ncnc2sc3c(c12)CCCC3)c1ccccc1`, the IC50 in test [1] is 101 to 900 nM.
Regarding `C=CC(=O)N1CCc2c(sc3ncnc(N[C@H](CO[Si](C)(C)C(C)(C)C)c4ccccc4)c23)C1`, the figures for the half-maximal inhibitory concentration (IC50) (in test [1]; at EGFR (human)) were 101 to 900 nM and 301 to 999 nM, respectively.
Consider `OC[C@@H](Nc1ncnc2oc(-c3ccccc3)c(-c3ccoc3)c12)c1ccccc1`, for which the IC50 lay in the range of 101 to 900 nM in test [1] and 100 to 300 nM at EGFR (human).
In test [1], `COC[C@@H](Nc1ncnc2sc3c(c12)CCN(C(=O)/C=C/CN(C)C)C3)c1ccccc1` came in with an IC50 below 59 nM.
Turning to `Cc1sc2ncnc(N[C@H](CO)c3ccccc3)c2c1C`, on EGFR (human), the IC50 lay within 301 to 999 nM.
With `C=CC(=O)Nc1ccc(-c2c(-c3ccccc3)oc3ncnc(N[C@H](CO)c4ccccc4)c23)cc1`, the IC50 was in the range of 60 to 100 nM in test [1] and 301 to 999 nM on EGFR (human).
In the same order, the values of `OC[C@@H](Nc1ncnc2oc(-c3ccccc3)c(-c3ccccc3)c12)c1ccccc1` are 101 to 900 nM and 301 to 999 nM.
In the same order, the values of `C=CC(=O)Nc1cccc(-c2csc3ncnc(N[C@H](CO)c4ccccc4)c23)c1` are below 59 nM and 1 to 99 nM.
`CC(=O)Nc1ccc(-c2c(-c3ccccc3)oc3ncnc(N[C@H](CO)c4ccccc4)c23)cc1`: the IC50 in test [1] was 60 to 100 nM; on EGFR (human) it was 100 to 300 nM.
In test [1], `C=CC(=O)Nc1cccc(-c2c(-c3ccccc3)oc3ncnc(N(C)[C@H](COC)c4ccccc4)c23)c1` gave an IC50 of 101 to 900 nM.
Consider `C[C@@H](Nc1ncnc2sc3c(c12)CCN(C(=O)/C=C/CN(C)C)C3)c1ccc(Br)cc1`, for which the IC50 in test [1] is below 59 nM; on EGFR (human), 1 to 99 nM.
In the same order, the values of `C[C@@H](Nc1ncnc2sc3c(c12)CCN(C(=O)/C=C/CNc1ccccc1)C3)c1ccccc1` are 101 to 900 nM and 301 to 999 nM.
`OC[C@@H](Nc1ncnc2sc(-c3ccccc3)cc12)c1ccccc1` yielded an IC50 in test [1] of 101 to 900 nM.
On EGFR (human), `CC[C@@H](Nc1ncnc2oc(-c3ccccc3)cc12)c1ccccc1` had an IC50 of 301 to 999 nM.
For the molecule `OC[C@@H](Nc1ncnc2sc3c(c12)CCCC3)c1ccccc1`, the IC50 in test [1] lay within 101 to 900 nM; against EGFR (human) it was 100 to 300 nM.
In the same order, the values of `CN(C)C/C=C/C(=O)N1CCc2c(sc3ncnc(N[C@H](CCO)c4ccccc4)c23)C1` are below 59 nM and 1 to 99 nM.
As to `CC#CC(=O)Nc1cccc(-c2c(-c3ccccc3)oc3ncnc(N[C@H](COC)c4ccccc4)c23)c1`, in test [1], the IC50 lay within 101 to 900 nM.
As to `CN(C)C/C=C/C(=O)N1CCc2c(sc3ncnc(N[C@H](CO[Si](C)(C)C(C)(C)C)c4ccccc4)c23)C1`, the figures for the IC50 (in test [1]; against EGFR (human)) were 60 to 100 nM and 301 to 999 nM, respectively.
In the same order, the values of `C=CC(=O)Nc1cccc(-c2cc3c(N[C@H](CO)c4ccccc4)ncnc3s2)c1` are below 59 nM and 100 to 300 nM.
`COc1ccc(-c2c(-c3ccccc3)oc3ncnc(N[C@H](CO)c4ccccc4)c23)cc1`: the IC50 in test [1] was in the range of 101 to 900 nM; against EGFR (human), 100 to 300 nM.
For `C[C@@H](Nc1ncnc2sc3c(c12)CCN(C(=O)/C=C/CN(C)CCO)C3)c1ccccc1`, in that order: below 59 nM and 1 to 99 nM.
In the case of `COCCN(C)C/C=C/C(=O)N1CCc2c(sc3ncnc(N[C@H](CO)c4ccccc4)c23)C1`, the IC50 in test [1] was below 59 nM.
On the same count and under the same terms, the figure for `O=C(O)[C@@H](Nc1ncnc2sc3c(c12)CCC3)c1ccccc1` is 101 to 900 nM.
As for `CN(C)C/C=C/C(=O)N1CCc2c(sc3ncnc(N[C@H](COCc4cccnc4)c4ccccc4)c23)C1`, the IC50 in test [1] is below 59 nM; against EGFR (human) it was 1 to 99 nM.
On EGFR (human), `CC(=O)OC[C@@H](Nc1ncnc2oc(-c3ccccc3)c(Br)c12)c1ccccc1` showed an IC50 of 301 to 999 nM.
On to `CC[C@@H](Nc1ncnc2oc(-c3ccccc3)c(-c3ccccc3)c12)c1ccccc1`, for which the 50% inhibitory concentration (IC50) at EGFR (human) fell in the range of 301 to 999 nM.
Consider `CN(C)C/C=C/C(=O)N1CCc2c(sc3ncnc(N[C@H](CO)Cc4ccccc4)c23)C1`, for which the IC50 in test [1] fell in the range of 101 to 900 nM; against EGFR (human) it was 1 to 99 nM.
In turn, `CCOC(=O)/C=C/C(=O)N1CCc2c(sc3ncnc(N[C@H](CO)c4ccccc4)c23)C1` came in with an IC50 at EGFR (human) of 1 to 99 nM.
Take `OC[C@@H](Nc1ncnc2oc(-c3ccccc3)c(-c3ccco3)c12)c1ccccc1`: the IC50 in test [1] fell in the range of 101 to 900 nM; against EGFR (human), 301 to 999 nM.
As for `O=C(O)[C@@H](Nc1ncnc2sc(-c3ccccc3)cc12)c1ccccc1`, the IC50 in test [1] lay within 101 to 900 nM.
On the same count and under the same terms, the value for `O=C(O)/C=C\C(=O)N1CCc2c(sc3ncnc(N[C@H](CO)c4ccccc4)c23)C1` was 101 to 900 nM.
